Literature values as cited in patent publication US20190307696A1, “TABLETS COMPRISING MIRABEGRON AND SOLIFENACIN” (SYNTHON B.V., priority 2016, published 2019).

Legend:
[1] = neutral to acidic pH
[2] = presence of food in the GI tract

permeability (BCS): low permeability
solubility (BCS): high solubility
Structure (SMILES): Nc1nc(CC(=O)Nc2ccc(CCNC[C@H](O)c3ccccc3)cc2)cs1 [Mirabegron]
solubility in water [1]: soluble in water between neutral to acidic pH
bioavailability [2]: affected by the presence of food in the GI tract
